Test results as given in the kinase profiling compilation of Christmann-Franck et al. (2016).

Key:
Assay in all cases: radiometric filter-binding kinase assay, Kinase HotSpot
Conditions in all cases: compound 0.5 µM; ATP 10 µM
SRPK1 (human) = SRPK1 (human) (UniProt Q96SB4)
MAP3K2 (human) = MAP3K2 (human) (UniProt Q9Y2U5)
CAMKK2 (human) = CAMKK2 (human) (UniProt Q96RR4)
NEK4 (human) = NEK4 (human) (UniProt P51957)
GSK3A (human) = GSK3A (human) (UniProt P49840)
BRSK1 (human) = BRSK1 (human) (UniProt Q8TDC3)
PIM3 (human) = PIM3 (human) (UniProt Q86V86)
EGFR (human) = EGFR (human) (UniProt P00533)
FGFR3 (human) = FGFR3 (human) (UniProt P22607)
GSK3B (human) = GSK3B (human) (UniProt P49841)
STK25 (human) = STK25 (human) (UniProt O00506)
DYRK4 (human) = DYRK4 (human) (UniProt Q9NR20)
KDR (human) = KDR (human) (UniProt P35968)
RPS6KA3 KD1 KD2 (human) = RPS6KA3 KD1 KD2 (human) (UniProt P51812)
CDK3 CCNE1 (human) = CDK3 CCNE1 (human) (UniProt Q00526+P24864)
EPHA5 (human) = EPHA5 (human) (UniProt P54756)
WEE1 (human) = WEE1 (human) (UniProt P30291)
EPHB2 (human) = EPHB2 (human) (UniProt P29323)
TGFBR1 (human) = TGFBR1 (human) (UniProt P36897)
MAP4K5 (human) = MAP4K5 (human) (UniProt Q9Y4K4)
MAP3K9 (human) = MAP3K9 (human) (UniProt P80192)
MAP2K1 (human) = MAP2K1 (human) (UniProt Q02750)
BTK (human) = BTK (human) (UniProt Q06187)
ZAP70 (human) = ZAP70 (human) (UniProt P43403)
MAPK1 (human) = MAPK1 (human) (UniProt P28482)
PRKG2 (human) = PRKG2 (human) (UniProt Q13237)
GRK6 (human) = GRK6 (human) (UniProt P43250)
PAK6 (human) = PAK6 (human) (UniProt Q9NQU5)
CDC42BPA (human) = CDC42BPA (human) (UniProt Q5VT25)
CAMK1 (human) = CAMK1 (human) (UniProt Q14012)
CSK (human) = CSK (human) (UniProt P41240)
EPHA2 (human) = EPHA2 (human) (UniProt P29317)
CAMK2G (human) = CAMK2G (human) (UniProt Q13555)
EPHB1 (human) = EPHB1 (human) (UniProt P54762)
SRPK3 (human) = SRPK3 (human) (UniProt Q9UPE1)
CLK4 (human) = CLK4 (human) (UniProt Q9HAZ1)
ULK1 (human) = ULK1 (human) (UniProt O75385)
CSNK1D (human) = CSNK1D (human) (UniProt P48730)
RPS6KA5 KD2 (human) = RPS6KA5 KD2 (human) (UniProt O75582)
ERBB2 (human) = ERBB2 (human) (UniProt P04626)
MAPK3 (human) = MAPK3 (human) (UniProt P27361)
SYK (human) = SYK (human) (UniProt P43405)

GSK3A (human), sequence (P49840 whole entry, looked up): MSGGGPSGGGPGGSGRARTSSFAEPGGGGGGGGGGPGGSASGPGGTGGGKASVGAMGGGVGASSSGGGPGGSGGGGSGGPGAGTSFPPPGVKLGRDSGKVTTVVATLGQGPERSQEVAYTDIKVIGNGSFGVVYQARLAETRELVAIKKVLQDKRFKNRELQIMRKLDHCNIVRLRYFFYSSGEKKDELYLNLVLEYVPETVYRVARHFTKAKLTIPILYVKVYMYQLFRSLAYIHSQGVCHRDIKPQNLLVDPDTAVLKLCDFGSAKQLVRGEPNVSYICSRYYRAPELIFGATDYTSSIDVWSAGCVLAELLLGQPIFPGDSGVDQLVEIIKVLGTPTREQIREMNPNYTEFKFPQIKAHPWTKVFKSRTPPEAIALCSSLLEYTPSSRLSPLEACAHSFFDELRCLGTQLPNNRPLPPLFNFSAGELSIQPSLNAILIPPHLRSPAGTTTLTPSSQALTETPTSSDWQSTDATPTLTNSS
PAK6 (human), sequence (Q9NQU5 whole entry, looked up): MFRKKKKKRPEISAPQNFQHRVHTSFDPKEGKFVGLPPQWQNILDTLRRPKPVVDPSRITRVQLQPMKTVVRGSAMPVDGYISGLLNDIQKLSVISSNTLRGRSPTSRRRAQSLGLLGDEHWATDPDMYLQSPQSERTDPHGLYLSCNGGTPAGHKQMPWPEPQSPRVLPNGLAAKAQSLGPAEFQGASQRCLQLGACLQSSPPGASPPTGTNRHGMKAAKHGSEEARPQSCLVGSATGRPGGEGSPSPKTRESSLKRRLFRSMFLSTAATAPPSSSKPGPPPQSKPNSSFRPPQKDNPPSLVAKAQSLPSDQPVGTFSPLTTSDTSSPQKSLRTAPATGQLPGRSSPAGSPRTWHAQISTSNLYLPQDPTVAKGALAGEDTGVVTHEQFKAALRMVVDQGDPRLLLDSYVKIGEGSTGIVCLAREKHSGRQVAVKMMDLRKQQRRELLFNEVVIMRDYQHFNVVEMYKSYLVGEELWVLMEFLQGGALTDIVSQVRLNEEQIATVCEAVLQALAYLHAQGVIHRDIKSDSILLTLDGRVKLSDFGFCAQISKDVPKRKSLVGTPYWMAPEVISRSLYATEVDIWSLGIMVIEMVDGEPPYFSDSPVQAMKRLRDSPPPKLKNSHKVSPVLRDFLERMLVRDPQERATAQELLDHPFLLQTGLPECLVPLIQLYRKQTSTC
EPHA2 (human), sequence (P29317 whole entry, looked up): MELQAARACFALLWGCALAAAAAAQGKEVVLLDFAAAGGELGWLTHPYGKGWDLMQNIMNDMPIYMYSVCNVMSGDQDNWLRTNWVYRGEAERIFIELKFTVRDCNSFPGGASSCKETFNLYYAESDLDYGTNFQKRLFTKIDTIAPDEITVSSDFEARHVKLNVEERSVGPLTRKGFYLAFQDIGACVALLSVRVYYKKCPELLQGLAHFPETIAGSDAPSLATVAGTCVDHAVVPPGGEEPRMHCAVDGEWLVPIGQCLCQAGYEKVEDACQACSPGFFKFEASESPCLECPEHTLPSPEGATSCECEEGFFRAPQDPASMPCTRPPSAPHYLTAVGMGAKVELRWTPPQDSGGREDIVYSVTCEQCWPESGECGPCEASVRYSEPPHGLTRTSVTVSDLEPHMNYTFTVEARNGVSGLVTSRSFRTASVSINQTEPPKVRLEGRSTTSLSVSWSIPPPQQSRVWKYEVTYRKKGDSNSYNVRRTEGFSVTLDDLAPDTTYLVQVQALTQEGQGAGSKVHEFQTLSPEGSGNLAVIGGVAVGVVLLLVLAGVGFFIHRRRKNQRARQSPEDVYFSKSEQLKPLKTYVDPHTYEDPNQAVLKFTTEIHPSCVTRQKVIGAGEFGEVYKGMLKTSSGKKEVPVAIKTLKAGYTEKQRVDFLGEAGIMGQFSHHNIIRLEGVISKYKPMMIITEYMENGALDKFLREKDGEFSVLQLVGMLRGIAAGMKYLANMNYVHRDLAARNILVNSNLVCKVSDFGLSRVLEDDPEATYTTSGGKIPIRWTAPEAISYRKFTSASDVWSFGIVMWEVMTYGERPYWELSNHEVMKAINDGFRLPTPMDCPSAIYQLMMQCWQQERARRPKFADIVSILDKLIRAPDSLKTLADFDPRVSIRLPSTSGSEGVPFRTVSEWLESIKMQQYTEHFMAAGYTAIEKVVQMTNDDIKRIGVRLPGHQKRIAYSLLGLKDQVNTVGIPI
GSK3B (human), sequence (P49841 whole entry, looked up): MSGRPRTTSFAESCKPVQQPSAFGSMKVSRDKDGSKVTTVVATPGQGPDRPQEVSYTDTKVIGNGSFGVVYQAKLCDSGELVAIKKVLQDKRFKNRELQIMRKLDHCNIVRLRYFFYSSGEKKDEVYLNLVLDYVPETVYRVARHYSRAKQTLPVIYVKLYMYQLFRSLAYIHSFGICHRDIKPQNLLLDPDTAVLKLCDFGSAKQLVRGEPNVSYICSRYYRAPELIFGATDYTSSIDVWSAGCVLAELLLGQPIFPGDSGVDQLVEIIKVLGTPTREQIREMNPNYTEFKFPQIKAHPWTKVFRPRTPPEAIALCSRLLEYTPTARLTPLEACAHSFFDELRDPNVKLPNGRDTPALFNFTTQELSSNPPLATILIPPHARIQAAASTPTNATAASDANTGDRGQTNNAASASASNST
EPHB2 (human), sequence (P29323 whole entry, looked up): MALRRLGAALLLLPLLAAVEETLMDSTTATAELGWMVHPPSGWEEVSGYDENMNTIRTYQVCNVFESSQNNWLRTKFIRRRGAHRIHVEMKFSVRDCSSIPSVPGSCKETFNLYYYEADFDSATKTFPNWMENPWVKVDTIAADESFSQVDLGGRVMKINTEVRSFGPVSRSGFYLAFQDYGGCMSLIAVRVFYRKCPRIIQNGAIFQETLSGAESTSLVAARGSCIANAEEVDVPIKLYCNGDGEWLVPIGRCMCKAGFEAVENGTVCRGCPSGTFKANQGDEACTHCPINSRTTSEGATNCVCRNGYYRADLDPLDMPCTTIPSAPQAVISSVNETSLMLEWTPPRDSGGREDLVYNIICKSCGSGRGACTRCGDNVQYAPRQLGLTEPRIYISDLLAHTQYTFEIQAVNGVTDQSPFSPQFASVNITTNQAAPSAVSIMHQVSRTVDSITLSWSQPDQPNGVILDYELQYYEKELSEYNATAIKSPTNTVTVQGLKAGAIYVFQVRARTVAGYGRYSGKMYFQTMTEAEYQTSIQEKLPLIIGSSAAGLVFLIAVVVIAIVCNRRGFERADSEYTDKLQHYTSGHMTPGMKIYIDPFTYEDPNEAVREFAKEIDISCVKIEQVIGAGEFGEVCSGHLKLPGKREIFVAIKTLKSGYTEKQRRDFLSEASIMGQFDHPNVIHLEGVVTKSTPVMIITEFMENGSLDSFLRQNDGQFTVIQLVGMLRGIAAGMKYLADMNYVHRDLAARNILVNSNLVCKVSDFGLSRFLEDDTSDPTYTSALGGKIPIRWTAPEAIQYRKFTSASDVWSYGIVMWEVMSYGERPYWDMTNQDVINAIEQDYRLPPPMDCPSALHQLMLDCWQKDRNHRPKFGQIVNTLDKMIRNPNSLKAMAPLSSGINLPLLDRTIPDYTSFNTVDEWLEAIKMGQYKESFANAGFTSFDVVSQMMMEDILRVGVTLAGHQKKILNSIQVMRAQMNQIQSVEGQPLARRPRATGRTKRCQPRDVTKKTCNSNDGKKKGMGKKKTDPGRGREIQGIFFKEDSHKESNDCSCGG
CAMKK2 (human), sequence (Q96RR4 whole entry, looked up): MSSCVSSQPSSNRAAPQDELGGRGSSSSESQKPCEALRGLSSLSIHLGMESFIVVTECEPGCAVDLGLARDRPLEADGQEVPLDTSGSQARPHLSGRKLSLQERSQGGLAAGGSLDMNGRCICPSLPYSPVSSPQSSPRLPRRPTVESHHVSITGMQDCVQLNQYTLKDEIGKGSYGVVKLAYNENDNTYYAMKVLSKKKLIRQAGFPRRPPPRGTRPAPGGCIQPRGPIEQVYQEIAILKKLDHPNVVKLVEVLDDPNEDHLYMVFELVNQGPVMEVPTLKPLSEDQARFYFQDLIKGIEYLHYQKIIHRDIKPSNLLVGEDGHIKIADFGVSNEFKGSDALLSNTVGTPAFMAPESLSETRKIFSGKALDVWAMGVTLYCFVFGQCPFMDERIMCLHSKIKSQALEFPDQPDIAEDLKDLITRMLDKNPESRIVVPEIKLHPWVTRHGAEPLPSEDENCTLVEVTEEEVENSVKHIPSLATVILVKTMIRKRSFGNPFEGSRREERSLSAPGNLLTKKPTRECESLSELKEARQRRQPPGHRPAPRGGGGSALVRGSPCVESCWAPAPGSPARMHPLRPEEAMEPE
CSNK1D (human), sequence (P48730 whole entry, looked up): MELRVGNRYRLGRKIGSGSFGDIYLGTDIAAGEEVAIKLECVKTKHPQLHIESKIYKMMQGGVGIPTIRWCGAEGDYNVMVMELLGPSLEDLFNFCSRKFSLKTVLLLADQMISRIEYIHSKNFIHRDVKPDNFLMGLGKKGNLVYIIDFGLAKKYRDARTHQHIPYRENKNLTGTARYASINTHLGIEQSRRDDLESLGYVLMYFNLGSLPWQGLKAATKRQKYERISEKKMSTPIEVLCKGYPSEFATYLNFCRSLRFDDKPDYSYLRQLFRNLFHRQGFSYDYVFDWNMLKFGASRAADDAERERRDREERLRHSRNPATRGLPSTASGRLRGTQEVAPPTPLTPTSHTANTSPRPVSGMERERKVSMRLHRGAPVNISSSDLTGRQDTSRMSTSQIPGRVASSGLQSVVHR
MAPK1 (human), sequence (P28482 whole entry, looked up): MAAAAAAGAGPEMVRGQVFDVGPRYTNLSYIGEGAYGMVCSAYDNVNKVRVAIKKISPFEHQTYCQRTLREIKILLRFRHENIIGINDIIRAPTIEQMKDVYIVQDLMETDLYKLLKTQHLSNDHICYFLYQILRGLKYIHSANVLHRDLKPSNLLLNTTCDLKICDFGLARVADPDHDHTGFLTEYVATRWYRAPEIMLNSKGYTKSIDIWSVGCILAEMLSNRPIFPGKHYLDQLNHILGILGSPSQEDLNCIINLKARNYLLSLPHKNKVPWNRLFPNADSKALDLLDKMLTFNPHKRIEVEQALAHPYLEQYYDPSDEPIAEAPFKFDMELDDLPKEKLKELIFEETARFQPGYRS

## COc1ccc2c(c1)c(C1=C(c3c[nH]c4ccccc34)C(=O)NC1=O)cn2CCCN(C)C
SRPK1 (human)
  residual activity: 116%
MAP3K2 (human)
  residual activity: 80.6%
CAMKK2 (human)
  residual activity: 82%
NEK4 (human)
  residual activity: 90.7%
GSK3A (human)
  residual activity: 14%
BRSK1 (human)
  residual activity: 81.9%
PIM3 (human)
  residual activity: 5.01%
EGFR (human)
  residual activity: 92.6%
FGFR3 (human)
  residual activity: 87.5%
GSK3B (human)
  residual activity: 32%
STK25 (human)
  residual activity: 55.7%
DYRK4 (human)
  residual activity: 97.3%
KDR (human)
  residual activity: 40.7%
RPS6KA3 KD1 KD2 (human)
  residual activity: 6.55%
CDK3 CCNE1 (human)
  residual activity: 78.8%
EPHA5 (human)
  residual activity: 87.2%
WEE1 (human)
  residual activity: 85.1%
EPHB2 (human)
  residual activity: 78.7%
TGFBR1 (human)
  residual activity: 101%
MAP4K5 (human)
  residual activity: 27.7%
MAP3K9 (human)
  residual activity: 57.6%
MAP2K1 (human)
  residual activity: 85%
BTK (human)
  residual activity: 90.2%
ZAP70 (human)
  residual activity: 90.3%
MAPK1 (human)
  residual activity: 102%
PRKG2 (human)
  residual activity: 60.7%
GRK6 (human)
  residual activity: 96.2%
PAK6 (human)
  residual activity: 70.4%
CDC42BPA (human)
  residual activity: 89.2%
CAMK1 (human)
  residual activity: 90.2%
CSK (human)
  residual activity: 84%
EPHA2 (human)
  residual activity: 91.3%
CAMK2G (human)
  residual activity: 91.1%
EPHB1 (human)
  residual activity: 91.7%
SRPK3 (human)
  residual activity: 89.5%
CLK4 (human)
  residual activity: 32.8%
ULK1 (human)
  residual activity: 99%
CSNK1D (human)
  residual activity: 92%
RPS6KA5 KD2 (human)
  residual activity: 61.3%
ERBB2 (human)
  residual activity: 115%
MAPK3 (human)
  residual activity: 93%
SYK (human)
  residual activity: 68.5%
